Here are results for two compounds from US11072634B2, “Inhibitors of transglutaminases” (Zedira GmbH, priority 2016, dated 2021).

A word on the IC50: it is the midpoint of a concentration-inhibition curve.

One data set deals with CaCo2 and Huh7 cells. Description: Cytotoxicity of transglutaminase inhibitors (BrdU and EZ4U). It is filed as cell-based, human. The settings on record: BrdU and EZ4U, depending on the cell type. How it is done:
(§1) The following cell lines are used for determination of cytotoxicity: • CaCo2 (human colon carcinoma cell line) • Huh7 (human liver carcinoma cell line).
(§2) Cells are cultivated in DMEM/10% FCS at 37° C. and 5% CO2 in a 96 well plate with an initial seeding density of 2×10^4 cells/well.
(§3) Transglutaminase inhibitors are added to the cells with final concentrations from 0.1 μM to 1 mM one hour after seeding. The different inhibitor dilutions are prepared in DMSO, resulting in a final concentration of 1% (v/v) DMSO in every well (2 μl inhibitor in 200 μl cell culture medium). Cycloheximide (2.5 μg/ml) and Camptothecin (0.2 μg/ml) are used as control compounds. All measurements are performed in triplicates.
Cytotoxicity of transglutaminase inhibitors is evaluated with two different assays:
(§4) Determination of proliferation using Cell Proliferation ELISA, BrdU (Roche, Cat. No. 11647229001).
After 24 h of incubation with inhibitors or controls, BrdU is added to the cells. After further incubation for 18 h, the cells are fixed and cellular DNA becomes denatured. […] Substrate solution is added and absorbance at 450 nm is recorded. […]
(§5) After 48 h of incubation with inhibitors or controls, the tetrazolium substrate is added to the cells. Substrate turnover by the cells is measured over two hours at 450 nm (using 630 nm was reference wavelength).

Data set [1] deals with CaCo2 (human colon carcinoma cell line). Description: Metabolic activity, EZ4U-Assay. The format is cell-based. The procedure: as §1, §2, §3
(§6) Determination of metabolic activity using EZ4U-Assay (Biomedica, Cat. No. BI-5000).
as §5

Data set [2] relates to Huh7 (human liver carcinoma cell line). Description: Metabolic activity, EZ4U-Assay. It is filed as cell-based. How it is done:
as §1, §2, §3, §6, §5

The subject of data set [3] is CaCo2 (human colon carcinoma cell line). The data set can be described thus: Cell Proliferation ELISA, BrdU. It is filed as cell-based. How it is done: as §1, §2, §3, §4
(§7) After 24 h of incubation with inhibitors or controls, BrdU is added to the cells. After further incubation for 18 h, the cells are fixed and cellular DNA becomes denatured. A monoclonal antibody (conjugated with peroxidase) raised against BrdU is added to the wells and binds to BrdU which is incorporated into the DNA. Substrate solution is added and absorbance at 450 nm is recorded. Further analysis is performed according to the manufacturer's protocol.

Data set [4] has as its system Huh7 (human liver carcinoma cell line). Description: Cell Proliferation ELISA, BrdU. It is filed as cell-based. The procedure:
as §1, §2, §3, §4, §7
A general note: An ELISA detects its analyte on a solid surface through an enzyme-linked reagent.

Another data set concerns the target T1, TG2 (Homo sapiens, UniProt P21980).
T1 sequence (P21980 1-687): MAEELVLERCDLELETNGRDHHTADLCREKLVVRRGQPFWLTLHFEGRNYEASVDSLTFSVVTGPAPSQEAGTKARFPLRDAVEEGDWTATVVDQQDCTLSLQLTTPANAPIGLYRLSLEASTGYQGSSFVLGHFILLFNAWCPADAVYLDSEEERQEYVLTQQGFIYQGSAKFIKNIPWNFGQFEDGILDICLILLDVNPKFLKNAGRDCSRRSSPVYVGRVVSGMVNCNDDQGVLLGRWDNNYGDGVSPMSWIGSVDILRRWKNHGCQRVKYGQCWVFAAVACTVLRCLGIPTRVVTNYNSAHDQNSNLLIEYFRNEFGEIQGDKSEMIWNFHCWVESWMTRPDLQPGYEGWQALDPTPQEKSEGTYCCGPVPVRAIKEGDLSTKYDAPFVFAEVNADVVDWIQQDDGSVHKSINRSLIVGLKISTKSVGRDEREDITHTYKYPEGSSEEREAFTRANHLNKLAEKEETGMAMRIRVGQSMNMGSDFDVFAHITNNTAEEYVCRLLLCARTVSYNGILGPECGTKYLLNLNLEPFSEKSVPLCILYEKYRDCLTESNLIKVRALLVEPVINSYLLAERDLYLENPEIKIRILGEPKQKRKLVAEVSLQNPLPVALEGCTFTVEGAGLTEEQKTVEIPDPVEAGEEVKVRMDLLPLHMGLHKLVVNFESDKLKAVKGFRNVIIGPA
The data set can be described thus: FXIII assay format using TG2 instead of FXIII (selectivity of FXIIIa blockers). The format is biochemical. The settings on record: Table 3, selectivity with respect to TG2; read-out: IC50 TG2. The procedure: 50 μg lyophilized His-tagged recombinant human factor XIII A-subunit (His6-rhFXIII, Zedira product 1027) is reconstituted in H2O (volume depends on original volume before lyophilization) resulting in a buffer containing 20 mM Tris-HCl, 150 mM NaCl, 1 mM EDTA, 1 mM DTT, 189 mg/ml maltodextrin, pH=7.5. The rhFXIII stock solution is diluted in buffer (50 mM Tris-HCl, 7.5 mM CaCl2, 150 mM NaCl, pH=7.4) to give a working solution of 59 U/ml (based on the amine-incorporation activity measured using transglutaminase activity assay #1036 (Zedira GmbH), described below).
A 10 mM inhibitor stock solution is prepared in DMSO, and from this a serial 1:2-fold dilution series is prepared also in DMSO. Each of the initial dilutions is subsequently diluted 1:50-fold with buffer (50 mM Tris-HCl, 7.5 mM CaCl2, 150 mM NaCl, pH=7.4) to yield the final working dilutions containing 2% (v/v) DMSO.
15 μl of inhibitor working dilution are added per well of a 96 well microtiter plate. As control, 15 μl of a 2% (v/v) DMSO solution prepared using the buffer mentioned above are added per well.
480 μl of His6-rhFXIII working solution and 120 μl human alpha thrombin (0.5 NIH units/μl) are added to 10.8 ml assay buffer (50 mM Tris-HCl, 7.5 mM CaCl2, 150 mM NaCl, 5 mM DTT, 13.4 mM glycine methylester, 50 μM Abz-NE(CAD-DNP)EQVSPLILLK-OH, (Zedira product A101; patent No.: EP 1781807B1), pH=7.4). From this master-mix solution, 285 μl are added per well containing the inhibitor. Increase in fluorescence is measured using […] and λem=418 nm at 37° C. for 35 min. A slope of the increase in fluorescence between 20 and 30 min is calculated for determination of the IC50 value (inhibitor concentration at which 50% of the initial FXIII activity is blocked).
This assay was also used to determine selectivity of inhibitors preferentially blocking FXIIIa by using TG2 instead of FXIII.
Analysis of enzymatic activity is performed by calculation of the slope of an increase in fluorescence intensity. IC50 values are calculated by plotting the enzymatic activity (as percentage from control containing 2% DMSO instead of inhibitor) against the inhibitor concentration. IC50 is defined as the inhibitor concentration blocking 50%) of initial enzyme activity.

Data set [5] relates to fresh citrated whole blood. Description: Thromboelastometry (ROTEM delta) in whole blood with t-PA. The settings on record: human whole blood. The procedure:
Thromboelastometry is a visco-elastic method for the assessment of blood coagulation. In whole blood parameters like clotting time (CT), clot formation time (CFT), maximum clot firmness (MCF) and lysis index at 60 min (LI60) were obtained using the ROTEM® delta device according to the manufacturer.
Briefly, 20 μL star-TEM® (0.2 mol/l CaCl2), 20 μL r ex-TEM® (recombinant tissue factor, phospholipids, heparin inhibitor), 10 μL inhibitor stock solution (1.8-0.23 mM), combined with 10 μL t-PA stock solution (0.72 μg/ml) to yield concentrations of 0.9-0.11 mM in 18% DMSO/PBS with 0.36 μg/ml t-PA and 300 μL fresh citrated whole blood (human, from healthy consenting donors) were mixed in a disposable cuvette. As control the inhibitor stock solution was replaced by 36% DMSO/0.36 μg/ml t-PA in PBS.

Data set [6] deals with T2, recombinant human factor XIII A-subunit (rhFXIII-A, plasma transglutaminase) (Homo sapiens, UniProt P00488).
T2 construct: His6; purchased Zedira 1027 (so in the source); T027)
T2 sequence (P00488 39-732 limits assumed): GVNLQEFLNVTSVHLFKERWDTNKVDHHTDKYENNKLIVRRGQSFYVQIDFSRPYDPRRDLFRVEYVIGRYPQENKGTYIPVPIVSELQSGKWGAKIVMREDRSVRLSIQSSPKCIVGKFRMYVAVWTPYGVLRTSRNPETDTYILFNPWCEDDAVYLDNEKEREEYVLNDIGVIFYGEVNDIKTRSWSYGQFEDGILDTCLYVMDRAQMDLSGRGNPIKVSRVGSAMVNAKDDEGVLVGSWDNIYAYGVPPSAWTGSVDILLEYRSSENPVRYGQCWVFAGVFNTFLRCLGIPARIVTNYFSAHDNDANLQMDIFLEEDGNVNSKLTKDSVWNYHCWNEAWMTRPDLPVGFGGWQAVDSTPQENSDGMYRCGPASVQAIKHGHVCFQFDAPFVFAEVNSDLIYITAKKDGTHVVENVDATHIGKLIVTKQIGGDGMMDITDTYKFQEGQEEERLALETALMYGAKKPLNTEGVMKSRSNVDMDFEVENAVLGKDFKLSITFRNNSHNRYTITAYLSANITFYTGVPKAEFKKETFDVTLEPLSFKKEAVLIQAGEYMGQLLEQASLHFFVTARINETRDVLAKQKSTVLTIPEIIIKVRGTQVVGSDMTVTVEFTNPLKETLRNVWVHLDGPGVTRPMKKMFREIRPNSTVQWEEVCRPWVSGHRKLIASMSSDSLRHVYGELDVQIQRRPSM
The data set can be described thus: Inhibition of rec. human coagulation factor XIII (fluorescence, Abz-NE(CAD-DNP)EQVSPLILLK-OH). It is filed as biochemical. Conditions: Table 3, FXIII inhibitors; read-out: IC50 FXIII. Put shortly:
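His6-rhFXIII activated by human alpha thrombin in Tris buffer pH 7.4 with 7.5 mM CaCl2, 5 mM DTT, 13.4 mM glycine methylester and 50 μM quenched peptide substrate. Fluorescence (ex 313, em 418 nm) followed at 37 °C for 35 min; IC50 from slope between 20 and 30 min versus 2% DMSO control.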

Where a SMILES comes first, the peptide text is derived from it. [ ]: non-standard residue; d: D form. The star is where a group is joined. Nle(5,6-dioxo,6-NHMe) = CNC(=O)C(=O)CC[C@H](N)C(=O)O; Isonicotinoyl(3-COOH) = O=C(O)c1cnccc1C(=O)*; DON = [N-]=[N+]=CC(=O)CC[C@H](N)C(=O)O; Pro(4-oxo) = O=C1CN[C@H](C(=O)O)C1; Chg = N[C@H](C(=O)O)C1CCCCC1; Tle = CC(C)(C)[C@H](N)C(=O)O; Cbz = O=C(OCc1ccccc1)*

Consider `COC(=O)[C@H](CC(C)C)NC(=O)[C@@H]1CCCN1C(=O)[C@@H](NC(=O)[C@H](CCC(=O)C=[N+]=[N-])NC(=O)OCc1ccccc1)C(C)C` [Compound Z006, Z-DON-VPL-OMe, reference compound] (Cbz-[DON]VPL-OMe), for which the “concentration at which cytotoxic (reduced cell proliferation and metabolic activity)” value in the data set on CaCo2 and Huh7 cells was determined as 125 µM. For the same compound, the “Cytotoxicity concentration (>10% deviation from negative control), EZ4U, Caoo2” value in data set [1] amounted to 500 µM. Moreover, in data set [2], the “Cytotoxicity concentration (>10% deviation from negative control), EZ4U, Huh-7” value came out at 125 µM. Also, the “Cytotoxicity concentration (>10% deviation from negative control), BrdU, Caco2” value in data set [3] was 250 µM. Also, in data set [4], the “Cytotoxicity concentration (>10% deviation from negative control), BrdU, Huh-7” value was determined as 125 µM.

For `CNC(=O)C(=O)CC[C@H](NC(=O)c1ccncc1C(=O)O)C(=O)N[C@H](C(=O)N1CC(=O)C[C@H]1C(=O)N[C@H](C(=O)N[C@H](C(N)=O)C1CCCCC1)C1CCCCC1)C(C)(C)C` [Compound E25, 4-((S)-1-((S)-1-((S)-2-((S)-2-((S)-2-amino-1-cyclonexyl-2-oxoethylamino)-1-cyclonexyl-2-oxoethylcarbamoyl)-4-oxopyrrolidin-1-yl)-3,3-dimethyl-1-oxobutan-2-ylamino)-6-(methylamino)-1,5,6-trioxohexan-2-ylcarbamoyl)nicotinic acid] ({Isonicotinoyl(3-COOH)}-[Nle(5,6-dioxo,6-NHMe)][Tle][Pro(4-oxo)][Chg][Chg]-NH2), the IC50 stood at 5.5 µM at TG2 and 50 nM in data set [6]. In addition, the “reduction of maximum clot firmness (MCF) compared to control (K)” value in data set [5] (6.25-50 μM, with t-PA) is reported as “dose dependent influence”. The “clot lysis at 60 minutes (LI60)” value in data set [5] (in the presence of 0.02% t-PA) is “dose dependent influence”.
